Experimental data taken from ChEMBL document CHEMBL4811298, “Discovery of novel class of histone deacetylase inhibitors as potential anticancer agents” (Bioorg Med Chem, 2021).
The source made the active and inactive calls. The calls are words filed in the database; no cut-off is given here.

Columns and labels:
[1] = test system: MCF7; assay: Upregulation of RELA (p65 ) gene expression in human MCF7 cells at 3 uM incubated for 24 hrs by whole transcriptome analysis; format: functional, cell-based
[2] = test system: MCF7; assay: Upregulation of NFkB1 gene expression in human MCF7 cells at 3 uM incubated for 24 hrs by whole transcriptome analysis; format: functional, cell-based
[3] = test system: MCF7; assay: Upregulation of HDAC6 gene expression in human MCF7 cells at 3 uM incubated for 24 hrs by whole transcriptome analysis; format: functional, cell-based
[4] = test system: MCF7; assay: Upregulation of SIRT2 gene expression in human MCF7 cells at 3 uM incubated for 24 hrs by whole transcriptome analysis; format: functional, cell-based
[5] = test system: MCF7; assay: Upregulation of HDAC8 gene expression in human MCF7 cells at 3 uM incubated for 24 hrs by whole transcriptome analysis; format: functional, cell-based
[6] = test system: MCF7; assay: Upregulation of HDAC10 gene expression in human MCF7 cells at 3 uM incubated for 24 hrs by whole transcriptome analysis; format: functional, cell-based
[7] = test system: MCF7; assay: Induction of cell cycle arrest in human MCF7 cells assessed as accumulation at G1/S phase at 1 uM incubated for 4 hrs by PI staining based flow cytometric analysis; format: functional
[8] = test system: MCF7; assay: Upregulation of RELB gene expression in human MCF7 cells at 3 uM incubated for 24 hrs by whole transcriptome analysis; format: functional, cell-based
[9] = test system: MCF7; assay: Upregulation of HDAC4 gene expression in human MCF7 cells at 3 uM incubated for 24 hrs by whole transcriptome analysis; format: functional, cell-based
[10] = test system: MCF7; assay: Upregulation of c-REL gene expression in human MCF7 cells at 3 uM incubated for 24 hrs by whole transcriptome analysis; format: functional, cell-based
[11] = test system: MCF7; assay: Upregulation of HDAC3 gene expression in human MCF7 cells at 3 uM incubated for 24 hrs by whole transcriptome analysis; format: functional, cell-based
[12] = test system: MCF7; assay: Upregulation of SIRT3 gene expression in human MCF7 cells at 3 uM incubated for 24 hrs by whole transcriptome analysis; format: functional, cell-based
[13] = test system: MCF7; assay: Induction of apoptosis in human MCF7 cells assessed as increase in caspase 3/7 activity at 1 to 3 uM measured after 48 hrs by ELISA; format: functional, cell-based; conditions: dose 1-3 µM
[14] = test system: MCF7; assay: Upregulation of SIRT5 gene expression in human MCF7 cells at 3 uM incubated for 24 hrs by whole transcriptome analysis; format: functional, cell-based
[15] = molecular target: Histone deacetylase 2 (Homo sapiens, UniProt Q92769); format: cell-based, Sf9
[16] = test system: MCF7; assay: Upregulation of HDAC11 gene expression in human MCF7 cells at 3 uM incubated for 24 hrs by whole transcriptome analysis; format: functional, cell-based
[17] = test system: MCF7; assay: Upregulation of HDAC1 gene expression in human MCF7 cells at 3 uM incubated for 24 hrs by whole transcriptome analysis; format: functional, cell-based
[18] = test system: MCF7; assay: Upregulation of HDAC5 gene expression in human MCF7 cells at 3 uM incubated for 24 hrs by whole transcriptome analysis; format: functional, cell-based
[19] = test system: MCF7; assay: Upregulation of SIRT4 gene expression in human MCF7 cells at 3 uM incubated for 24 hrs by whole transcriptome analysis; format: functional, cell-based
[20] = molecular target: T1, Histone deacetylase 5 (Homo sapiens, UniProt Q9UQL6); assay: Potency index, ratio of vorinostat IC50 to test compound IC50 for Inhibition of N-terminal GST-tagged human recombinant full length HDAC5 expressed in baculovirus-infected Sf9 cells assessed as reduction in 7-amino-4-methylcoumarin release measured every 5 mins by fluorescence based analysis
[21] = test system: MCF7; assay: Induction of cell cycle arrest in human MCF7 cells assessed as accumulation at G2/M phase at 1 uM incubated for 24 hrs by PI staining based flow cytometric analysis; format: functional
[22] = test system: MCF7; assay: Induction of cell cycle arrest in human MCF7 cells assessed as accumulation at subG1 phase at 1 uM incubated for 24 to 72 hrs by PI staining based flow cytometric analysis; format: functional; conditions: time 24-72 hrs
[23] = molecular target: T1, Histone deacetylase 5; assay: Inhibition of N-terminal GST-tagged human recombinant full length HDAC5 expressed in baculovirus-infected Sf9 cells assessed as reduction in 7-amino-4-methylcoumarin release measured every 5 mins by fluorescence based analysis
[24] = test system: MCF7; assay: Upregulation of HDAC7 gene expression in human MCF7 cells at 3 uM incubated for 24 hrs by whole transcriptome analysis; format: functional, cell-based
[25] = test system: MCF7; assay: Induction of apoptosis in human MCF7 cells assessed as downregulation of c-Myc protein expression at 1 to 3 uM measured after 48 hrs western blot analysis; format: functional, cell-based; conditions: dose 1-3 µM
[26] = test system: MCF7; assay: Upregulation of SIRT6 gene expression in human MCF7 cells at 3 uM incubated for 24 hrs by whole transcriptome analysis; format: functional, cell-based
[27] = molecular target: T2, Histone deacetylase 7 (Homo sapiens, UniProt Q8WUI4); assay: Inhibition of N-terminal GST-tagged human HDAC7 (518 to end residues) expressed in baculovirus-infected Sf9 cells assessed as reduction in 7-amino-4-methylcoumarin release measured every 5 mins by fluorescence based analysis
T2 sequence (Q8WUI4 whole entry): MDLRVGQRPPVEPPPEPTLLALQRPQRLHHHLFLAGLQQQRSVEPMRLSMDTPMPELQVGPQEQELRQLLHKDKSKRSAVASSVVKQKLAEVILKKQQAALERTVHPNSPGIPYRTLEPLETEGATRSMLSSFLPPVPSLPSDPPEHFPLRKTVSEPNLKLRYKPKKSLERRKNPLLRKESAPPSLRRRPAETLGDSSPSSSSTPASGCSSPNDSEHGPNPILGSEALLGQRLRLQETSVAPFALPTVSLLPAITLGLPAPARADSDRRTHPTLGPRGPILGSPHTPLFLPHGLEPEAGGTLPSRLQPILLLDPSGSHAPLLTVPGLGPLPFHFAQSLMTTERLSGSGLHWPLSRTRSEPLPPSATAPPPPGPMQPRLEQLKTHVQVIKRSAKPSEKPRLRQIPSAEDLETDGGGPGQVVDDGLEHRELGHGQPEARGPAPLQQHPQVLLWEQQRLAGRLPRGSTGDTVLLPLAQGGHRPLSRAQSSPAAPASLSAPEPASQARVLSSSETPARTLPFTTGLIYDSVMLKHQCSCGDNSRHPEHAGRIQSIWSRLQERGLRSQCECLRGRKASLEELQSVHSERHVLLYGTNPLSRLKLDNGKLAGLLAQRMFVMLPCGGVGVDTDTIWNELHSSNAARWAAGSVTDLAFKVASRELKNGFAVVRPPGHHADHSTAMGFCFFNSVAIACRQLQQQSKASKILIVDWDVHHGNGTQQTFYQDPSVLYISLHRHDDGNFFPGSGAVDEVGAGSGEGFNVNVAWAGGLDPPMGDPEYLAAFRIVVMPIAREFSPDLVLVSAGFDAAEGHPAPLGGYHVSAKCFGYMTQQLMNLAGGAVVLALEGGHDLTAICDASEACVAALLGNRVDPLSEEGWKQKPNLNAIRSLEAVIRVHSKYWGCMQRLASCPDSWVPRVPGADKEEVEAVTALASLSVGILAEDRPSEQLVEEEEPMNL

[28] = test system: MCF7; assay: Upregulation of SIRT7 gene expression in human MCF7 cells at 3 uM incubated for 24 hrs by whole transcriptome analysis; format: functional, cell-based
[29] = molecular target: Histone deacetylase 9 (Homo sapiens, UniProt Q9UKV0); assay: Inhibition of C-terminal His-tagged human HDAC9 (604 to 1066 residues) expressed in baculovirus-infected Sf9 cells assessed as reduction in 7-amino-4-methylcoumarin release measured every 5 mins by fluorescence based analysis
[30] = molecular target: Histone deacetylase 1 (Homo sapiens, UniProt Q13547); assay: (§1) Inhibition of C-terminal FLAG/His-tagged human recombinant HDAC1 (1 to 482 residues) expressed in baculovirus-infected Sf9 cells assessed as reduction in 7-amino-4-methylcoumarin release using fluorogenic HDAC substrate 3 measured every 5 mins by fluorescence based analysis
[31] = test system: MCF7; assay: Upregulation of SIRT1 gene expression in human MCF7 cells at 3 uM incubated for 24 hrs by whole transcriptome analysis; format: functional, cell-based
[32] = test system: MCF7; assay: Upregulation of NFkB2 gene expression in human MCF7 cells at 3 uM incubated for 24 hrs by whole transcriptome analysis; format: functional, cell-based
[33] = molecular target: Histone deacetylase 3/Nuclear receptor corepressor 2 (HDAC3/NCoR2) (Homo sapiens, UniProt O15379); assay: as §1, with “His-tagged” for “FLAG/His-tagged”, “full length HDAC3” for “HDAC1”, “428 residues)/N-terminal GST-tagged human recombinant NCOR2 (395 to 489” for “482”
[34] = molecular target: Histone deacetylase 4 (Homo sapiens, UniProt P56524); assay: Inhibition of N-terminal GST-tagged/C-terminal His-tagged human recombinant HDAC4 (627 to 1084 residues) expressed in baculovirus-infected Sf9 cells assessed as reduction in 7-amino-4-methylcoumarin release measured every 5 mins by fluorescence based analysis
[35] = test system: MCF7; assay: Upregulation of HDAC2 gene expression in human MCF7 cells at 3 uM incubated for 24 hrs by whole transcriptome analysis; format: functional, cell-based

T1 sequence (Q9UQL6 whole entry): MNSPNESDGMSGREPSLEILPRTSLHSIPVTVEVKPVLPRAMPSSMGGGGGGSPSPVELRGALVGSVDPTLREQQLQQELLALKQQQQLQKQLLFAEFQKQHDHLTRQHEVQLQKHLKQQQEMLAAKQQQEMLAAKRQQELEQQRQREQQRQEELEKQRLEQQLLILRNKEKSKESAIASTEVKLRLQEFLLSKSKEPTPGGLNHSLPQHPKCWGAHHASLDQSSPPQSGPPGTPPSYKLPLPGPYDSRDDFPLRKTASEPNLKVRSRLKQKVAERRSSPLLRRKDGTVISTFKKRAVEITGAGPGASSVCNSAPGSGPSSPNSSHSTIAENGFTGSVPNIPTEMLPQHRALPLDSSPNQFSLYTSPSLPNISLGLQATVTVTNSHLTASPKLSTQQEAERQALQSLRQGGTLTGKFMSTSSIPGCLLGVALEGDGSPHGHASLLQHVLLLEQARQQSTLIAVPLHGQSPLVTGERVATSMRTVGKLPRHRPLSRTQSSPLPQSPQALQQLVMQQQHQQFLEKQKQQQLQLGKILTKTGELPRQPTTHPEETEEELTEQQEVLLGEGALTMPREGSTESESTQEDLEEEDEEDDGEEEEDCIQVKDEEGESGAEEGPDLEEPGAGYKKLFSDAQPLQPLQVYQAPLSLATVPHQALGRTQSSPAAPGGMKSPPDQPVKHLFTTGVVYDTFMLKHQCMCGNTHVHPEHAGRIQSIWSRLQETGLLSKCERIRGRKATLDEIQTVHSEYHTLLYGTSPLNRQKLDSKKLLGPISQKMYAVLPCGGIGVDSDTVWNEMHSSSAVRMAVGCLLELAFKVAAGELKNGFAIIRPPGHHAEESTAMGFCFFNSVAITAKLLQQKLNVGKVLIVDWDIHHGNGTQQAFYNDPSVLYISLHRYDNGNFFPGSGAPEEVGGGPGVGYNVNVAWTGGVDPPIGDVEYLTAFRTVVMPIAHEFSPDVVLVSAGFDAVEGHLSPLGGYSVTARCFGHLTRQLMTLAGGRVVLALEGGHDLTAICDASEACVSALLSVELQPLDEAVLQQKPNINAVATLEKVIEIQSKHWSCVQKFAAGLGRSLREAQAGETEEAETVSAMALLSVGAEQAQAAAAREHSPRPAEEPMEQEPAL
Chain of Histone deacetylase 2 (Q92769 whole entry): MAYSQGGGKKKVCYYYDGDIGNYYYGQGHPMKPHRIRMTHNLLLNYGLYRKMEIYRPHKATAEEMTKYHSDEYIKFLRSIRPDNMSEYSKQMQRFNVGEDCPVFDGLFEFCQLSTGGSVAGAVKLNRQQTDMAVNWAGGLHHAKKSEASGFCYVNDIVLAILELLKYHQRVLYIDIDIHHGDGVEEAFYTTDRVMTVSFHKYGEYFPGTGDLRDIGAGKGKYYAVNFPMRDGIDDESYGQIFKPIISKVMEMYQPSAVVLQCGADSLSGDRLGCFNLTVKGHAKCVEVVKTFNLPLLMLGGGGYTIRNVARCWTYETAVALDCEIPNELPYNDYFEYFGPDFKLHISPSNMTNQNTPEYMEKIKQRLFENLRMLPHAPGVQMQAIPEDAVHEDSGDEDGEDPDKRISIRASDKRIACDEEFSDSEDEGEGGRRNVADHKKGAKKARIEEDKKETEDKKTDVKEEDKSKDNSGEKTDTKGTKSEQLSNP
Chain of Histone deacetylase 1 (Q13547 whole entry, the tested form may be a part): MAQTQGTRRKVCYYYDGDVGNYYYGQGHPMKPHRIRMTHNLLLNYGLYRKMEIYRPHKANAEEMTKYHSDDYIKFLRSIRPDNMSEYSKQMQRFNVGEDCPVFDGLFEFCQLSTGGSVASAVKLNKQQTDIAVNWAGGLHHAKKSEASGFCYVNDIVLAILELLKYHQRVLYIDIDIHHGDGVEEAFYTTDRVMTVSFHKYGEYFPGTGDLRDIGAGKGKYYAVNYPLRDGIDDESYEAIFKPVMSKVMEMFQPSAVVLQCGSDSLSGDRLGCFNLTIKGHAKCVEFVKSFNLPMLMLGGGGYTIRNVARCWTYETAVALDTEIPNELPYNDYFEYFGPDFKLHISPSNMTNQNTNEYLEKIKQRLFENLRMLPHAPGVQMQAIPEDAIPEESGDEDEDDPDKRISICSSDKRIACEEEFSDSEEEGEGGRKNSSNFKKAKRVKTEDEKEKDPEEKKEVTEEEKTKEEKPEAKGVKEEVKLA
Chain of Histone deacetylase 3/Nuclear receptor corepressor 2 (HDAC3/NCoR2) (O15379 whole entry, the tested form may be a part): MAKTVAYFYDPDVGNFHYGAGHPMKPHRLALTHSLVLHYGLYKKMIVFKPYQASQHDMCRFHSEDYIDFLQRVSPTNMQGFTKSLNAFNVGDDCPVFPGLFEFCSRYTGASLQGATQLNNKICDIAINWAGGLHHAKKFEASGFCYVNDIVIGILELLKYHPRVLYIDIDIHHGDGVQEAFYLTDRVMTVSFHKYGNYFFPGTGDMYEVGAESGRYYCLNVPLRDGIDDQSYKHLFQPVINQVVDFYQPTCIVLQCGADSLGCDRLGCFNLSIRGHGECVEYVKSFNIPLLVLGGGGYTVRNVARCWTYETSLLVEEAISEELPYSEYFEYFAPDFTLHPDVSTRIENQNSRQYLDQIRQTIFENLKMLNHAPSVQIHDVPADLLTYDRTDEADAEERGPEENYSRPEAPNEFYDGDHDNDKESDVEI
Chain of Histone deacetylase 3/Nuclear receptor corepressor 2 (HDAC3/NCoR2) (Q9Y618 whole entry, further chain, the tested form may be a part): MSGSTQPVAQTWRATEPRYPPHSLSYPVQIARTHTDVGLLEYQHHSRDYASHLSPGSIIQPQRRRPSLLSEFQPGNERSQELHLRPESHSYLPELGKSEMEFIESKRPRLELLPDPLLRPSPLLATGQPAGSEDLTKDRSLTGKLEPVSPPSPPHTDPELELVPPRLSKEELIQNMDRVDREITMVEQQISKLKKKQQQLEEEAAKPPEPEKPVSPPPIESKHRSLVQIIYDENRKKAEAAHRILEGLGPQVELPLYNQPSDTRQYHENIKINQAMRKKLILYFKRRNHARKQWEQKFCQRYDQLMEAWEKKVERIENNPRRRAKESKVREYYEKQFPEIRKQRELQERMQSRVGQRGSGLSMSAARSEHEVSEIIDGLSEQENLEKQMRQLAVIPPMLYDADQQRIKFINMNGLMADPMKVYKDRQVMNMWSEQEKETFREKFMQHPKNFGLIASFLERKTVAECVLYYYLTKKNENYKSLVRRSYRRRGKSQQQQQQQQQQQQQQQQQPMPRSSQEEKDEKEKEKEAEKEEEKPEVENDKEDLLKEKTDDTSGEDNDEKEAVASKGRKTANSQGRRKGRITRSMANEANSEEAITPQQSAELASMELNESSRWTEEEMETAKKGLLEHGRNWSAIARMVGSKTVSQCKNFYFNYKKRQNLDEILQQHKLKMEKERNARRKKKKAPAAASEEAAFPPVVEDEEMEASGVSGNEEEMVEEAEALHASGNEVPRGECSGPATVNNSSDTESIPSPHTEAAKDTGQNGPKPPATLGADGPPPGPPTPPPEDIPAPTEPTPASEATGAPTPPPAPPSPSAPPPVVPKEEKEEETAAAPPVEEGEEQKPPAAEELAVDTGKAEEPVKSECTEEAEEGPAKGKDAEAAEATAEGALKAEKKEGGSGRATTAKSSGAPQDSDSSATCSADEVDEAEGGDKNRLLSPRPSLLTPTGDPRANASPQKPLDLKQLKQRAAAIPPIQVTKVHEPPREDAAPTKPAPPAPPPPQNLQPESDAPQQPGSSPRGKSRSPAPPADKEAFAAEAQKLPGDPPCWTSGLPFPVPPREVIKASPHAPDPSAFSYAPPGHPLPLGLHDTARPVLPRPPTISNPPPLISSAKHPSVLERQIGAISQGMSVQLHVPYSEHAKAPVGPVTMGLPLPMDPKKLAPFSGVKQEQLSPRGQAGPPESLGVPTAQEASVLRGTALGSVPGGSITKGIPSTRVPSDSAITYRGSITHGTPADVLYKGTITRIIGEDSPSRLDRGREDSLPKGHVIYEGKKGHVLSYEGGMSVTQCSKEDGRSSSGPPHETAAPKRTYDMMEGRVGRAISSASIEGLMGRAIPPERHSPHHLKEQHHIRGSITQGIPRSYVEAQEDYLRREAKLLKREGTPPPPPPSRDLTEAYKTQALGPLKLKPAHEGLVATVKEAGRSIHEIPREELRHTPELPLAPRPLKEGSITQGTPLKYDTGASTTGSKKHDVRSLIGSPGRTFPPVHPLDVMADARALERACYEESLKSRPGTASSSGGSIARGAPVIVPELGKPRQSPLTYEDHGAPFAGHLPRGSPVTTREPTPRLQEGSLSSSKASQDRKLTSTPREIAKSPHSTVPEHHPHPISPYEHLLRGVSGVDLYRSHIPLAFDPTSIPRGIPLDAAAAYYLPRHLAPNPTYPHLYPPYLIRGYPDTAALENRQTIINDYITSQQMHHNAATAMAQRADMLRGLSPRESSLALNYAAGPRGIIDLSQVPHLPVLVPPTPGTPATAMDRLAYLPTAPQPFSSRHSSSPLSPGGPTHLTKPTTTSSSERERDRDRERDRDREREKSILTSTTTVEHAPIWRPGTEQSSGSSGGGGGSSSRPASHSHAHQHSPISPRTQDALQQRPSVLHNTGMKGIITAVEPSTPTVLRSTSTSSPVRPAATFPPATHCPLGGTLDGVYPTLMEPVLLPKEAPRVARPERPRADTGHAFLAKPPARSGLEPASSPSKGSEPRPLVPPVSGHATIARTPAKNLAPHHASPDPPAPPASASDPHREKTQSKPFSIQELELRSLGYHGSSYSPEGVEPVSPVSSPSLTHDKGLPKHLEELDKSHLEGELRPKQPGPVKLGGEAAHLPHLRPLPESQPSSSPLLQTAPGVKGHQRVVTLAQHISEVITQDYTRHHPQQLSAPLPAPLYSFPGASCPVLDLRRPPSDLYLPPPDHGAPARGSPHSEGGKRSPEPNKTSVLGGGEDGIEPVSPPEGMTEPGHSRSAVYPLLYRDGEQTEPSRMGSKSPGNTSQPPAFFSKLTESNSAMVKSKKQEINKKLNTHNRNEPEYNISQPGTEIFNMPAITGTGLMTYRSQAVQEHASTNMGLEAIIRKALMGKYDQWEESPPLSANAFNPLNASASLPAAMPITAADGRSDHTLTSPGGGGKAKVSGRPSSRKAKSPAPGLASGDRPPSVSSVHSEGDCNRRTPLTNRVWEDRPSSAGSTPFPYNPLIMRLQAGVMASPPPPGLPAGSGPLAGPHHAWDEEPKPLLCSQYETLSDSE

IC50 [15]: > 10 µM | Ratio IC50 [20]: > 33 | IC50 [23]: 0.307 µM | IC50 [27]: > 10 µM | IC50 [29]: > 10 µM | IC50 [30]: > 10 µM | IC50 [33]: > 10 µM | IC50 [34]: 8 µM
Structure (SMILES): CC(C)(C)Nc1c(-c2cccc(-c3nc4cc(-c5noc(C(F)(F)F)n5)ccc4[nH]3)c2)nc2cnccn12
Activity [1]: Active | Activity [2]: Active | Activity [3]: Active | Activity [4]: Active | Activity [5]: Active | Activity [6]: Active | Activity [7]: Active | Activity [8]: Active | Activity [9]: Active | Activity [10]: Active | Activity [11]: Active | Activity [12]: Active | Activity [13]: Active | Activity [14]: Active | Activity [16]: Active | Activity [17]: Active | Activity [18]: Active | Activity [19]: Active | Activity [21]: Active | Activity [22]: Active | Activity [24]: Active | Activity [25]: Active | Activity [26]: Active | Activity [28]: Active | Activity [31]: Active | Activity [32]: Active | Activity [35]: Active
